Data on one compound can be found in patent US9939427B2, “Method for evaluating the scent performance of perfumes or perfume mixtures” (Symrise AG, priority 2013, dated 2018).

Structures are written as SMILES.

The assay has as its target T1, OR10Q1 (Homo sapiens, UniProt Q8NGQ4).
T1 construct: specific primers, which amplify the complete open reading frame; expressed in transfected cells; host or cells: HEK293
T1 sequence (Q8NGQ4 1-319): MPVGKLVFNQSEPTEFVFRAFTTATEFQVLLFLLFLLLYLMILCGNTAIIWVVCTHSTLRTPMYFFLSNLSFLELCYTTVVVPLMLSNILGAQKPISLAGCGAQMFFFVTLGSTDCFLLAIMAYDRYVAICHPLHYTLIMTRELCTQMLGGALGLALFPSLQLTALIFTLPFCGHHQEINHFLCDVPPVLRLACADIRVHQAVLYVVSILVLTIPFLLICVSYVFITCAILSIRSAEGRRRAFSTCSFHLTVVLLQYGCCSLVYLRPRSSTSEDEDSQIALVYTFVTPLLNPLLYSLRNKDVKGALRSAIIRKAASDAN
The assay can be described thus: CRE-luciferase assay, OR10Q1 in HANA3A cells. Type of assay: cell-based. The settings on record: 50 μM, 100 μM, 150 μM, 200 μM and 250 μM; ratio of firefly to renila. As for the experimental part:
Calcium cations and phosphate anions created crystal precipitations coupled with DNA which could invade into the cells through endocytosis. Cells were transiently transfected with plasmid DNA which consists of pCI expression vector and PCR-amplified full-length cDNA of olfactory receptors candidates, and also Gα15, RTP1, Myr-Ric8A, HSC70, and m-Cherry as cofactors. The precipitation could be created after 15-20 min, with dropping the transfection solution on HEK293 cells. Before measuring by Ca-imaging cells were incubated 48-60 hours at 370 C, 5% CO2. Cationic liposome-mediated transfection method was applied to transfect DNA plasmid transiently in HANA3A cells in case of CRE-Luciferase and CRE-SEAP assays. […]
ORs responded by Ca-imaging with seven separate odorant mixtures formed from 66 odorants. […] Transfected HANA3A cells on poly-D-lysine-coated 96 well plates are ready for stimulation after 24 h. […] Measuring by plate reader (Luminometer). • 6. […] Measuring by plate reader (Luminometer). • 8. According to manufacturer's protocols for measuring luciferase and renilla activities, calculate normalized luciferase activity with using the formula (Ln-Lmin)/(Lmax-Lmin), where Ln is the luminescence of firefly in response to the odorant, L min is the minimum luciferase value on a plate, and L max is the maximum luciferase value on plate. […]

As to `O=C1CCCCCCCCCCCCCCO1` [Pentadecanolide, ω-cyclopentadecanolide], the “CRE-luciferase (cAMP assay) response of OR10Q1” value was “positive responses”.
